Data on three molecules can be found in US8518884B2, “Methods for treating atrial or ventricular arrhythmias by administering a G-protein alpha inhibitor” (Northwestern University, priority 2008, dated 2013).

One experiment relates to left atrium. Put plainly: Functional studies in pacing-induced CHF and control canine subjects: left atrial ERPs under autonomic manipulation. The format is in vivo. As for the experimental part:
Canine subjects were divided into three groups. In group 1, CHF was induced by rapid ventricular pacing for 4 weeks (i.e. when the animals began to develop clinical heart failure. In group 2, pacing was performed for only 3 weeks. Group three were control canine subjects not subjected to rapid ventricular pacing. At the end of follow up period, high-density epicardial mapping was performed in the PVs, the PLA and the LAA. ERPs were obtained at multiple sites under the following conditions: a) baseline (BSL), b) left cervical vagal stimulation at 20 Hz (VS), c) beta-stimulation with isoproterenol (ISO), d) beta-blockade with propranolol (PROP) and e) beta-blockade+vagal stimulation (P+VS). VS caused significant mean ERP shortening in all three groups. […] PROP increased the VS effect on ERP in normal controls, but produced an attenuation of this effect in the CHF group (SEE FIG. 37). In this CHF model, after 4 weeks of pacing, an increased vagal effect on atrial refractoriness, an increased cumulative sympathetic effect, and a change in the sympatho-vagal interactions of the left atrium were observed. After 3 weeks of pacing, there is pronounced autonomic remodeling, with evidence of P as well S nerve upregulation in the PVs and left atrium. Both P and S upregulation are more pronounced in the PLA (and to a lesser extent in the PVs) than in the rest of the left atrium. While vagal responsiveness in the left atrium is unaltered at 3 weeks of pacing, it increases after 4 weeks of pacing. […] The autonomic remodeling becomes more pronounced with increasing duration of pacing. […] The increase in β1 binding is consistent with the increase in sympathetic innervation. […] The P upregulation noted in the left atrium in CHF is a compensatory response to S upregulation that occurs in response to CHF. […] However, since normal atria are more densely innervated with vagal fibers (than the ventricle) and also contain a significant amount of IKAch, the compensatory response is likely to be more vigorous in the atrium. The compensatory increase in vagal innervations, and resulting increase in IKAch, may contribute to increased AF substrate.

For experiment [1], the target named is T1, M2R|Gαi/o interactions (Canis lupus familiaris, UniProt A0A8I3N4M6).
T1 construct: from tissue; host or cells: posterior left atrium of intact dogs (in vivo), 3 days after minigene injection and electroporation
T1 sequence (A0A8I3N4M6 1-466): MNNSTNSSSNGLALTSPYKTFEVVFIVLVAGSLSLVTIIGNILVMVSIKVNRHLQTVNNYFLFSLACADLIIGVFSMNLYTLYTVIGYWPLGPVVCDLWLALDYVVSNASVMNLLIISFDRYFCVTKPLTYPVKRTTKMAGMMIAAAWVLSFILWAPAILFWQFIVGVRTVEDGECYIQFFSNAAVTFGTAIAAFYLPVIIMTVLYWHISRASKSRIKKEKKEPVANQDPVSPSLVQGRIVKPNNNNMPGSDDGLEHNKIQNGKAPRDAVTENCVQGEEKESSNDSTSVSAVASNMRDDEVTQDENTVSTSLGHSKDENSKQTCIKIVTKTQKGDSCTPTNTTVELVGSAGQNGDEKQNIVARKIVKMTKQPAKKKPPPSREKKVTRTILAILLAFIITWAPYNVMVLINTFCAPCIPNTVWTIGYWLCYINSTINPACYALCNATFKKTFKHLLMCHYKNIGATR
Put plainly: Gαx minigenes in the PLA: vagal-induced ERP shortening, AF inducibility, AF duration and dominant frequency 3 days after delivery. The format is in vivo, dog. Here is the method:
(§1) In a small number of pilot experiments (N=6), 1 mg of Gαi2ctp or GαRp minigene was injected subepicardially in the PLA (also see Results). In the remaining experiments, 15-20 mg of ct-Gαi2ctp (N=5), or 7-10 mg of Gαi2ctp+7-10 mg of Gαo1ctp (N=3), or GαRp (N=5) minigenes was injected in the PLA. Minigenes were made up to a volume of 4 ml and injected at multiple sites (6-8 equally spaced sites, 0.5-1 cm apart; a volume of approximately 0.5 ml was injected at each site) in the PLA so as to cover the entire area between the PVs. […] Immediately after gene injection, electroporation was performed at each site of injection as follows: two gold-plated, needle-style electrodes (10 mm length each) were placed at each gene injection site on the PLA, with an inter-electrode distance of 5 mm; electroporation with performed as previously described in the lung by Dean et al^14, with 8 pulses of is at […] (ECM 830, Harvard Bioscience, Holliston, Mass.). After minigene delivery, the chest was closed and the animal allowed to recover. Vagal stimulation and electrophysiological testing were not performed at baseline, in order to minimize damage to the vagus nerve.
Baseline study: Three days after the initial study, the chest was re-opened. […] The PV plaque was placed circumferentially around the vein while the other two plaques were laid flat on the PLA and LAA epicardium. Effective refractory periods (ERPs) were obtained from 5, 6, and 4 sites on the PV, PLA, and LAA plaque, respectively, at baseline.
Vagal stimulation: For vagal stimulation, the left cervical vagus nerve was isolated, a bipolar stainless steel electrode was attached to the nerve, and stimulation was performed at 20 Hz (15-20V, 2-8 ms) (Grass S44G, Astromed Inc, R1). A vagal response was defined as: 1) sinus node slowing by at least 25% or 2) PR prolongation by more than 25% or 2:1 AV block^13. ERP testing was performed in the presence and absence of VS.
(§2) Atrial Fibrillation Inducibility: AF was defined as an atrial arrhythmia that was irregular in at least one of the recording electrodes. Regular atrial arrhythmias—e.g., atrial flutter and atrial tachycardia—were excluded from AF analysis. AF inducibility was measured as the inducibility index and duration of AF episodes after a single extrastimulus^8,15. As previously described, the inducibility index was defined as the number of AF episodes lasting more than 5 seconds induced by a single atrial extrastimulus divided by the total number of single atrial extrastimuli delivered to measure each ERP (at least 3 for each site)^8. The inducibility index was compared for each maneuver. Mean AF duration for each intervention was also assessed. All data was acquired by a 128-channel mapping system (Prucka Cardiolab, GE, WI) at a sampling rate of 977 Hz. All AF episodes induced during extrastimulus testing were stored for offline analysis. After all ERPs had been obtained, minigene injection was performed as described below.
Offline Electrogram Analysis. Electrograms recorded during the maximum duration AF episodes obtained during extrastimulus testing were analyzed with dominant frequency (DF) analysis. DF is an estimation of activation rate calculated as the frequency with the most power in the power spectrum. The power spectrum is obtained from the Fast Fourier Transform of an electrogram after rectification and low pass filtering (20 Hz). These analyses were performed offline using Matlab (Mathworks, Natick, Mass.).
(§3) Effective Refractory Periods. For each ERP, the pacing protocol was composed of a drive train (S1) of eight beats with a cycle length of 400 ms followed by an extrastimulus (S2). The S2 was decremented by 10 ms until loss of capture. […] Pacing was performed at an output current twice the threshold required for consistent capture of the tissue. The mean ERP was used as the representative ERP for each of the three sites as well as the entire left atrium.

Experiment [2] has as its target T1, M2R|Gαi/o interactions. In words: Gαx minigenes in the PLA: CCh-induced ERP shortening and AF 3 days after delivery. The format is in vivo, dog. Here is the method: as §1
CCh application: ERP shortening was assessed by direct application of CCh, a non-selective MR agonist, to the PLA. […] After each dose, ERP testing was performed in the PLA.
as §2, §3

For a further experiment, the system named is Gαi. In words: cp-Gα peptide delivery to the PLA with electroporation/sonoporation: ERPs and AF inducibility with vagal stimulation. In kind it is in vivo, canine. Here is the method: High-density epicardial mapping was performed in the PVs (2×2 electrodes), the PLA (7×3 electrodes) and the left atrial appendage (LAA) (7×3 electrodes) of canine subjects. Effective refractory periods (ERPs) were obtained at baseline and in response left cervical vagal stimulation (VS) (20 Hz). Cp-Gαi2 peptide (200-330 nM) was then applied topically to the epicardial aspect of the PLA in a canine subgroup. Cp-Gαi3 peptide (200-330 nM) was then applied topically to the epicardial aspect of the PLA of a second subgroup. Electroporation was performed after the application of peptide to enhance intracellular delivery of the peptide. ERPs were then re-measured in the presence and absence of VS.
In canine subjects, high-density epicardial mapping was performed in the PVs (2×2 electrodes), the PLA (7×3 electrodes) and the left atrial appendage (LAA) (7×3 electrodes). Effective refractory periods (ERPs) were obtained at baseline and in response left cervical vagal stimulation (VS) (20 Hz). FLAG-tcp-Gα peptides (200 nM-3 μM of cp-Gαi1/2 (N=8 canine subjects), cp-Gαi3 (N=4 canine subjects), or random-sequence cp-GαoR peptide (N=3 canine subjects) were injected into the PLA epicardium of the canine subjects followed by either sonoporation or electroporation. In a subgroup of the canine subjects, sonoporation or electroporation alone was performed without introduction of cp-Gαi peptide. ERPs were then re-measured in the presence and absence of VS. In a separate set of control animals, ERPs were measured before and after the administration of systemic autonomic blockade with propranolol (0.2 mg/kg)+atropine (0.04 mg/kg).

[3] abbreviates: 200 nM-3 μM injected into PLA + sono/electroporation.

Ends that are not written are not given here.

On to `CC(C)NCC(O)COc1cccc2ccccc12` (stereo not drawn) [PROP, propranolol], for which the “effect on ERPs” value is listed as “ERP lengthening” with left atrium (CHF canine subjects) and “significant shortening of ERPs” with left atrium (control canine subjects). Further, the “effect on the VS effect on ERP” value with left atrium (CHF group) is reported as “attenuation”; in the experiment with left atrium (normal controls) it was “increased”.

As to IKNNLKDCGLF [Gαi2ctp], the “vagal-induced ERP shortening in the PLA” value is 19.5 ± 5.0 ms at M2R|Gαi/o interactions [1] (3 days after minigene delivery, mean±SE) and “attenuated” on M2R|Gαi/o interactions [1] (compared to GαRcpt, FIG. 29A). Besides, the “vagal-induced ERP shortening in the PV and LAA” value on M2R|Gαi/o interactions [1] (compared to GαRp dogs) is “no significant difference”. Besides, at M2R|Gαi/o interactions [1] (inducibility index, vs. GαRp dogs), the “AF inducibility in response to VS” value was “significantly less”. Besides, on M2R|Gαi/o interactions [1] (vs. GαRp dogs), the “VS-induced increase in AF dominant frequency (DF)” value is given as “significantly less”. In addition, the “mean AF duration in response to VS” value on M2R|Gαi/o interactions [1] (vs. GαRp dogs) is on record as “significantly less”. The “CCh-induced ERP shortening in the PLA” value at M2R|Gαi/o interactions [2] (3 μM, 10 μM CCh, compared to GαRp dogs) is listed as “significantly less”; on M2R|Gαi/o interactions [2] (30 μM CCh, compared to GαRp dogs), “no significant difference”; on M2R|Gαi/o interactions [2] (CCh 3, 10 and 30 μM, compared to baseline ERP) it was “only at 30 μM CCh”. Also, the “AF duration in response to CCh” value on M2R|Gαi/o interactions [2] (vs. GαRp dogs) is “significantly less”. Besides, on M2R|Gαi/o interactions [2] (vs. GαRp dogs), the “AF inducibility in response to CCh” value is “significantly less”.

In the case of “cp-Gαi3: cell-penetrating poly-arginine tagged Gαi3 C-terminal peptide (IKNNLKECGLY; also: cell-penetrating poly-arginine tag, length and site not given here)”, in the experiment on Gαi (setting [3]), the “VS-induced ERP shortening in the LAA” value is on record as “reduced” and the “VS-induced ERP shortening in the PLA” value is reported as “eliminated”. The “VS induced ERP shortening” value in the experiment with Gαi (200-330 nM topical to PLA + electroporation, PLA, PV and LAA) is on record as “significantly attenuated”.
